One test has as its target CDK2 (human) (UniProt P24941). Kind of test: Enzyme Assay.
The next test has as its target ROCK2 (human) (UniProt O75116). Kind of test: Enzyme Assay.

pKi: −log10 of the molar value. Some results are limits rather than exact numbers.

Consider 64 compounds from the Kinase Knowledgebase extract (Sharma et al. 2016).

By pKi is commonly meant the Ki on a negative log10 scale, so that one unit is a factor of ten. A high value points to a small Ki.

Sequence of ROCK2 (human) (O75116 whole entry, looked up): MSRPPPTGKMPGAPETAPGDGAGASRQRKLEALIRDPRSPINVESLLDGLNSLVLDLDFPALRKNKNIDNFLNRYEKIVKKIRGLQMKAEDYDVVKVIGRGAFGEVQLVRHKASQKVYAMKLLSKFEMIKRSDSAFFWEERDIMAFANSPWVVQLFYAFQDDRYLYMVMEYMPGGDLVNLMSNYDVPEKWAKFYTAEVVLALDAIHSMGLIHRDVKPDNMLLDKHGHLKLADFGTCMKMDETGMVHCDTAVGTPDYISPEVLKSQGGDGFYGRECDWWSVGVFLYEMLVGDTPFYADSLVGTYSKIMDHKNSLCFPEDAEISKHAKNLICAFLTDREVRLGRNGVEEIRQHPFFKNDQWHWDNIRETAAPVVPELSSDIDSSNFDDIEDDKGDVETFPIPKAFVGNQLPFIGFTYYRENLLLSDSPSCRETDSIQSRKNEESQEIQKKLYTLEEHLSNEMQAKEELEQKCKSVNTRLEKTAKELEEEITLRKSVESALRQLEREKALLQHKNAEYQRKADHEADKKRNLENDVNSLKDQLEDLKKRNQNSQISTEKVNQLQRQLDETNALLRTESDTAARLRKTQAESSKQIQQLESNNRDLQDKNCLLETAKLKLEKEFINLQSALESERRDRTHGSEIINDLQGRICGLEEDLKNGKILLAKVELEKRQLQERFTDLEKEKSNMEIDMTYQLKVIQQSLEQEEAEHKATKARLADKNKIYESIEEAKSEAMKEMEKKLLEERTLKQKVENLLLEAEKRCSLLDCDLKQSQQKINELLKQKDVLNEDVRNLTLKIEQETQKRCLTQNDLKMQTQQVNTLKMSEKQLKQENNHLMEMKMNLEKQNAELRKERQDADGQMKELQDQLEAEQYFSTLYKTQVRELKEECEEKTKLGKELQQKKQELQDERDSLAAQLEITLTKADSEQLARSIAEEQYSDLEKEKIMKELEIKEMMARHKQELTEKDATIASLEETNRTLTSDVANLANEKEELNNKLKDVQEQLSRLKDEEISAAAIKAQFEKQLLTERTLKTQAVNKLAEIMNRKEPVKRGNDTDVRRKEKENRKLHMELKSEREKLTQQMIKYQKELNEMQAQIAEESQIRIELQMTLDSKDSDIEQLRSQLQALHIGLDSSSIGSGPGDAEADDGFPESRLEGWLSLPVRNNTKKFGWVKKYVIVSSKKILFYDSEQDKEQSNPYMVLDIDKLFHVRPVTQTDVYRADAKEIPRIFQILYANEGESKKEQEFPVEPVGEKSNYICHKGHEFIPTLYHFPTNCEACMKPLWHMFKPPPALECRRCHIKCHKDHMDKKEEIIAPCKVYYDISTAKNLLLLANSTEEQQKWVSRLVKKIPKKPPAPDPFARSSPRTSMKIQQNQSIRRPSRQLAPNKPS

With `CN(C)c1ccc(-c2c(-c3ccc4[nH]nc(N)c4c3)nnn2Cc2ccccc2)cc1`, the pKi on CDK2 (human) was 6.90; at ROCK2 (human), 7.70. Regarding `CS(=O)(=O)N(Cc1ccc2[nH]c(=O)c3cccn3c2c1)C1CC1`, on ROCK2 (human), the pKi is less than 5.10.

As to `NC(=O)c1ccc(Nc2ncnc3[nH]cc(-c4ccccc4)c23)cc1`, the pKi on CDK2 (human) was 6.30; at ROCK2 (human) it was 6.60.

In turn, `CN(c1ccccc1-c1ccc2c(c1)Nc1ccccc1NC2=O)S(C)(=O)=O` showed a negative logarithm of the Ki (pKi) on CDK2 (human) of 5.70. Regarding `CCCCNc1c(-c2ccc3[nH]ncc3c2)nc2ncccn12`, the results for the negative-log Ki (pKi) on CDK2 (human) and on ROCK2 (human) were 6.40 and 7.20, respectively. The corresponding values for `Fc1cccc(-c2c[nH]c3ncccc23)c1` are 5.90 and 6.50. Take `Cc1cc(=O)n2[nH]cc(C(=O)NCc3ccccc3)c2n1`: the pKi on ROCK2 (human) is 5.60. In the case of `FC(F)(F)c1ccccc1CNc1nccc(-c2c[nH]c3ncccc23)n1`, the pKi on CDK2 (human) is 8.30. `c1cnc2[nH]cc(-c3ccnc(NCC4CCCCC4)n3)c2c1`: the results for the negative-log Ki (pKi) on CDK2 (human) and at ROCK2 (human) were 8.40 and 8.20, respectively. With `NC(=O)c1ccc(-c2nc(-c3ccc4c(c3)OCO4)c(-c3ccccn3)[nH]2)cc1`, the pKi on ROCK2 (human) was less than 5.40. On to `COc1ccc(C(=O)Nc2n[nH]c3ccc(-c4cn(Cc5ccccc5)nn4)cc23)cc1OC`, for which the figures for the pKi at CDK2 (human) and on ROCK2 (human) were 7.90 and 6.10, respectively. In the case of `CCCn1c(=O)c2[nH]c(-c3cnn(Cc4cccc(C(F)(F)F)c4)c3)nc2n(CC)c1=O`, the pKi at CDK2 (human) is 5.30.

With `Clc1cc(-c2c[nH]c3ncccc23)nc(NC2CCCCC2)n1`, the results for the pKi at CDK2 (human) and on ROCK2 (human) were 6.70 and 6.90, respectively. The corresponding values for `NC(=O)c1ccc(-c2ccncc2)cc1NCc1cccc(F)c1` are 5.50 and 5.30. In the case of `COCCN(CCOC)c1cc(-c2c[nH]c3ncccc23)cc(Cl)n1`, the pKi is 5.70 on CDK2 (human) and 7.40 on ROCK2 (human).

`NC(=O)Cn1cc(-c2cc(-c3cc4ccccc4s3)c3[nH]ncc3c2)c2nc(N)ncc21`: the pKi was 6.40 at CDK2 (human) and 6.50 at ROCK2 (human). Turning to `CN(C)C1CCC(Nc2nc(Cl)cc(-c3c[nH]c4ncccc34)n2)CC1` (stereo not drawn), the pKi is 7.60 on CDK2 (human) and 8.60 at ROCK2 (human).

The compound `NC1CCCCC1Nc1nccc(-c2c[nH]c3ncccc23)n1` (stereo not drawn) gave a pKi on CDK2 (human) of 7.90.

Take `CN(Cc1ccccc1)c1cc(-c2c[nH]c3ncccc23)cc(Cl)n1`: the pKi was 7.50 at CDK2 (human) and 7.70 on ROCK2 (human). On to `CN(C)CCCOc1cc(-c2ccncc2)cc2[nH]nc(N)c12`, for which the results for the pKi at CDK2 (human) and at ROCK2 (human) were 5.50 and 6.60, respectively. `O=C(O)c1ccccc1Nc1ccnc(NCc2cccc(O)c2)n1` showed a pKi at ROCK2 (human) of less than 5.10. On to `NNc1cc(N2CCOCC2)nc(OCCc2ccccn2)n1`, for which the negative logarithm of the Ki (pKi) at ROCK2 (human) is less than 5.30. On to `COc1cc2c(cc1F)C(c1ccccc1Cl)=Nc1c(n[nH]c1C)N2`, for which the pKi at ROCK2 (human) is less than 5.10. Still for that read-out and setting: as for `Cc1cc(Nc2cc(N3CCN(C)CC3)nc(Sc3ccc(NC(=O)C4CC4)cc3)n2)[nH]n1`, the figure is less than 5.40. For `c1ccc(Cn2cc(-c3ccc4[nH]nc(-c5ccccc5)c4c3)nn2)cc1`, the figures for the negative-log Ki (pKi) at CDK2 (human) and at ROCK2 (human) were 7.00 and 7.20, respectively. Turning to `CS(=O)(=O)Nc1ccccc1-c1ccc2c(c1)Nc1ccccc1NC2=O`, the pKi at CDK2 (human) is 5.20. On ROCK2 (human), `NC(=O)c1cc(-c2ccnc(N)n2)[nH]c1-c1ccc(Cl)cc1Cl` showed a negative logarithm of the Ki (pKi) of 6.50. Regarding `C=CCNc1cc(-c2c[nH]c3ncccc23)cc(Cl)n1`, the pKi at CDK2 (human) was 7.00; at ROCK2 (human) it was 7.90.

As for `O=C(Nc1n[nH]c2ccc(-c3cn(Cc4ccccc4)nn3)cc12)c1cc(F)ccc1F`, the pKi on CDK2 (human) was 7.60; on ROCK2 (human) it was less than 5.30.

Regarding `O=c1cc(-c2ccncc2)nc(NCc2cc(F)cc(F)c2)[nH]1`, the pKi on CDK2 (human) and on ROCK2 (human) was 6.10 in each case. Consider `CCCCNc1cc(-c2ccncc2)cc2[nH]nc(N)c12`, for which the pKi on CDK2 (human) was 6.70; at ROCK2 (human) it was 7.20.

`CCCCNc1cc(-c2c[nH]c3ncccc23)ncn1`: the pKi on CDK2 (human) was 6.70; at ROCK2 (human), 7.70.

For the compound `CC(C)(CO)CNc1nccc(-c2c(-c3ccc(F)cc3)nc3c(CC4CC4)nccn23)n1`, on ROCK2 (human), the pKi is less than 5.10. The same measure, in the same setting: under `CCOC(=O)c1c[nH]n2c(=O)cc(-c3ccncc3)nc12` stands 5.70. For `CC(C)(C)Oc1cc(-c2ccncc2)cc2[nH]nc(N)c12`, the results for the pKi on CDK2 (human) and at ROCK2 (human) were 6.90 and 7.30, respectively.

As to `NC1CCCCC1Nc1nccc(Nc2ccccc2C(=O)O)n1` (stereo not drawn), at ROCK2 (human), the pKi is less than 5.10. On the same count and under the same terms, as for `Cn1cncc1C(OCc1c(-c2ccc(OC(F)(F)F)cc2)cc(C#N)c(=O)n1C)c1ccc(C#N)cc1` (stereo not drawn), the figure is less than 5.10. Take `COCCNc1cc(-c2c[nH]c3ncccc23)cc(Cl)n1`: the pKi is 6.60 on CDK2 (human) and 8.30 on ROCK2 (human). With `Cc1sc2[nH]c(=O)n3nc(-c4ccncc4)nc3c2c1C`, the pKi at ROCK2 (human) is 5.40. With `CC(C)(CO)CCCNc1cc(-c2c[nH]c3ncccc23)cc(Cl)n1`, the pKi at CDK2 (human) is 7.00; at ROCK2 (human) it was 8.00. On to `CCNC(=O)c1[nH]nc(-c2cc(Cl)c(O)cc2O)c1-c1ccc(OC)cc1`, for which the pKi on CDK2 (human) is 5.20; at ROCK2 (human), 5.60. As to `Cc1ccccc1-c1c(-c2ccc3[nH]nc(C)c3c2)nnn1Cc1ccccc1`, the pKi on CDK2 (human) is 8.40.

In the case of `CNCCOc1cncc(-c2ccc3[nH]nc(C)c3c2)c1`, the values for the pKi on CDK2 (human) and on ROCK2 (human) were 6.30 and 7.70, respectively. `Cc1c(C=O)c(O)n2c(nc3ccccc32)c1C#N`: the pKi on ROCK2 (human) was less than 5.10.

At CDK2 (human), `CCn1c(-c2nonc2N)nc2cnc(Oc3cccc(NC(=O)c4ccc(OCCN5CCOCC5)cc4)c3)cc21` had a pKi of 6.10. Consider `Fc1ccc2c(c1)-c1n[nH]cc1CS2`, for which the pKi at CDK2 (human) was 4.70. In turn, `Cc1cccc(NC(=O)Nc2ccc3c(c2)CCc2sc4ncnc(N)c4c2-3)c1` gave a pKi at ROCK2 (human) of 7.10.

For the compound `c1ccc(Cn2nnc(-c3ccc4[nH]ncc4c3)c2-c2ccccc2)cc1`, on CDK2 (human), the negative logarithm of the Ki (pKi) is 7.20. For `CCCCC(=O)Nc1cc(-c2c[nH]c3ncccc23)cc(Cl)n1`, the pKi at ROCK2 (human) was 6.80. On to `NC(=O)c1ccccc1Nc1nc(Nc2ccccc2)ncc1C(F)(F)F`, for which, on ROCK2 (human), the negative logarithm of the Ki (pKi) was 6.30. As to `O=C1NC(=O)C(c2c[nH]c3ccccc23)=C1c1nc(N2CCNCC2)nc2ccccc12`, the pKi on ROCK2 (human) was less than 5.40. `Nc1ncnc2c1c(-c1cnc3[nH]ccc3c1)nn2C1CCCC1`: the negative-log Ki (pKi) at ROCK2 (human) was 7.40.

Compound `NC(=O)c1ccc2c(ccn2-c2cccc(Cl)c2)c1` had a negative-log Ki (pKi) on ROCK2 (human) of 5.60. On to `O=C(Nc1cccc(C(F)(F)F)n1)Nc1ccnc2ccc(F)cc12`, for which the pKi on ROCK2 (human) was less than 5.40.

On CDK2 (human), `O=C(Nc1ccccc1)Nc1nccs1` showed a negative logarithm of the Ki (pKi) of 4.70. Consider `Oc1ccc(-c2nc(-c3ccc(F)cc3)c(-c3ccncc3)[nH]2)cc1`, for which the pKi on ROCK2 (human) was less than 5.40. Still for that read-out and setting: under `Nc1noc2cccc(-c3cccc(O)c3)c12` stands 6.60; under `Cn1cc(-c2ccccc2)c2nc(-c3ccncc3)cc(=O)n21`, 5.50. The same measure, in the same setting: as for `O=c1cc(-c2cccc(F)c2)[nH]c2c(-c3ccc(F)cc3)cnn12`, the figure is less than 5.10. On to `CCOC(=O)c1c(NC(=O)C2C(C)(C)C2(C)C)sc2cnccc12`, for which, at CDK2 (human), the pKi is 6.00. On ROCK2 (human), `Clc1cc(NC2CCCCC2)nc(-c2c[nH]c3ncccc23)n1` showed a pKi of less than 6.50. Regarding `c1ccc(-c2n[nH]cc2-c2ccncc2)cc1`, the pKi at CDK2 (human) is 4.90.

For the compound `O=c1cc(-c2ccc(F)cc2)[nH]c2c(-c3ccc(F)cc3)cnn12`, the pKi at ROCK2 (human) is less than 5.10. As to `O=C1CN=C(c2cccc(Cl)c2)c2c(sc3c2CCCC3)N1`, at CDK2 (human), the pKi is 5.10.
